Measured values published in EPA's CvTdb concentration-time database.

Tests used:
Rat [1] = assay: concentration in brain after dosing; details: 1848 h; dosed: Perfluorodecanoic acid; 10 mg/kg; oral; Male; Harlan Sprague Dawley
Rat [2] = assay: concentration in plasma after dosing; details: dosed: Perfluorodecanoic acid, 2 mg/kg, iv, Male, F344
Rat [3] = assay: concentration in liver after dosing; details: 3360 h; dosed: Perfluorodecanoic acid; 10 mg/kg; oral; Male; Harlan Sprague Dawley
Rat [4] = assay: concentration in plasma after dosing; details: dosed: dichloroacetic acid, 10 mg/kg, oral, Male, Harlan Sprague Dawley
Rat [5] = assay: concentration in plasma after dosing; details: 22 h; dosed: Primidone; 80 mg/kg; oral; Male; F344
Rat [6] = assay: concentration in plasma after dosing; details: 3 h; dosed: Primidone; 30 mg/kg; oral; Female; F344
Rat [7] = assay: concentration in plasma after dosing; details: 1 h; dosed: Wyeth-14643; 5.0 mg/kg; oral; Male; Sprague-Dawley
Rat [8] = assay: concentration in plasma after dosing; details: 5 min; dosed: Wyeth-14643; 2.0 mg/kg; iv; Male; Sprague-Dawley
Rat [9] = assay: concentration in plasma after dosing; details: dosed: Wyeth-14643, 1.0 mg/kg, oral, Male, Sprague-Dawley
Rat [10] = assay: concentration in plasma after dosing; details: dosed: Fluorotelomer alcohol 8+2, 12 mg/kg, iv, Male, F344
Rat [11] = assay: concentration in brain after dosing; details: 0.5 h; dosed: Fluorotelomer alcohol 8+2; 80 mg/kg; oral; Female; Harlan Sprague Dawley
Rat [12] = assay: concentration in liver after dosing; details: 3 h; dosed: Fluorotelomer alcohol 8+2; 80 mg/kg; oral; Female; Harlan Sprague Dawley
Rat [13] = assay: concentration in liver after dosing; details: 12 h; dosed: Fluorotelomer alcohol 8+2; 80 mg/kg; oral; Female; Harlan Sprague Dawley
Rat [14] = assay: concentration in plasma after dosing; details: dosed: Fluorotelomer alcohol 8+2, 12 mg/kg, oral, Male, Harlan Sprague Dawley
Rat [15] = assay: concentration in brain after dosing; details: 6 h; dosed: Fluorotelomer alcohol 8+2; 80 mg/kg; oral; Female; Harlan Sprague Dawley
Rat [16] = assay: concentration in thymus after dosing; details: 1 h; dosed: Thiodiglycolic Acid; 20 mg/kg; iv; Male; Harlan Sprague Dawley
Rat [17] = assay: concentration in liver after dosing; details: 4 h; dosed: Thiodiglycolic Acid; 20 mg/kg; iv; Female; Harlan Sprague Dawley
Rat [18] = assay: concentration in thymus after dosing; details: 40 min; dosed: Thiodiglycolic Acid; 20 mg/kg; iv; Male; Harlan Sprague Dawley
Rat [19] = assay: concentration in plasma after dosing; details: 10 min; dosed: Thiodiglycolic Acid; 20 mg/kg; iv; Male; F344
Rat [20] = assay: concentration in heart after dosing; details: 2 h; dosed: Thiodiglycolic Acid; 20 mg/kg; iv; Male; Harlan Sprague Dawley
Rat [21] = assay: concentration in liver after dosing; details: 4 h; dosed: Thiodiglycolic Acid; 20 mg/kg; iv; Female; Harlan Sprague Dawley; remark: listed apart in the source
Rat [22] = assay: concentration in thymus after dosing; details: 40 min; dosed: Thiodiglycolic Acid; 20 mg/kg; iv; Male; Harlan Sprague Dawley; remark: listed apart in the source
Rat [23] = assay: concentration in thymus after dosing; details: 2 h; dosed: Thiodiglycolic Acid; 20 mg/kg; iv; Female; Harlan Sprague Dawley
Rat [24] = assay: concentration in thymus after dosing; details: 3 h; dosed: Thiodiglycolic Acid; 20 mg/kg; iv; Female; Harlan Sprague Dawley
Rat [25] = assay: concentration in heart after dosing; details: 40 min; dosed: Thiodiglycolic Acid; 20 mg/kg; iv; Female; Harlan Sprague Dawley
Rat [26] = assay: concentration in plasma after dosing; details: 2 h; dosed: Thiodiglycolic Acid; 20 mg/kg; iv; Female; Harlan Sprague Dawley
Rat [27] = assay: concentration in plasma after dosing; details: dosed: Bis 2-Chloroethoxy Methane, 40 mg/kg, iv, Male, Harlan Sprague Dawley
Rat [28] = assay: concentration in heart after dosing; details: 5 h; dosed: Bis 2-Chloroethoxy Methane; 20 mg/kg; iv; Female; F344
Rat [29] = assay: concentration in plasma after dosing; details: 6 h; dosed: Bis 2-Chloroethoxy Methane; 20 mg/kg; iv; Male; F344
Rat [30] = assay: concentration in thymus after dosing; details: 1 h; dosed: Bis 2-Chloroethoxy Methane; 20 mg/kg; iv; Female; F344
Rat [31] = assay: concentration in heart after dosing; details: 3 h; dosed: Bis 2-Chloroethoxy Methane; 20 mg/kg; iv; Female; F344
Rat [32] = assay: concentration in plasma after dosing; details: 5 h; dosed: Bis 2-Chloroethoxy Methane; 20 mg/kg; iv; Female; F344
Rat [33] = assay: concentration in plasma after dosing; details: 5 h; dosed: Bis 2-Chloroethoxy Methane; 20 mg/kg; iv; Male; F344
Rat [34] = assay: concentration in liver after dosing; details: 20 min; dosed: Bis 2-Chloroethoxy Methane; 20 mg/kg; iv; Male; F344
Rat [35] = assay: concentration in plasma after dosing; details: 4 h; dosed: Di-n-butyl phthalate; 100 mg/kg; oral; Male; Sprague-Dawley
Rat [36] = assay: concentration in plasma after dosing; details: 3 h; dosed: Di-n-butyl phthalate; 100 mg/kg; oral; Male; Sprague-Dawley
Rat [37] = assay: concentration in plasma after dosing; details: 2 h; dosed: Di-n-butyl phthalate; 100 mg/kg; oral; Male; Sprague-Dawley
Rat [38] = assay: concentration in plasma after dosing; details: 10 h; dosed: Di-n-butyl phthalate; 100 mg/kg; oral; Male; Sprague-Dawley
Rat [39] = assay: concentration in plasma after dosing; details: 5 min; dosed: Di-n-butyl phthalate; 20 mg/kg; iv; Male; Sprague-Dawley

O=C(O)C(F)(F)C(F)(F)C(F)(F)C(F)(F)C(F)(F)C(F)(F)C(F)(F)C(F)(F)C(F)(F)F [Perfluorodecanoic acid]
concentration in brain (Rat [1]): 644 ng/g
concentration in plasma (Rat [2]; 12 h): 5770 ng/mL
concentration in plasma (Rat [2]; 1200 h): 860 ng/mL
concentration in liver (Rat [3]): 13300 ng/g

O=C(O)C(Cl)Cl [dichloroacetic acid]
concentration in plasma (Rat [4]; 10 min): 862 ng/mL
concentration in plasma (Rat [4]; 50 min): 167 ng/mL

CCC1(c2ccccc2)C(=O)NC(=O)NC1=O [Phenobarbital]
concentration in plasma (Rat [5]): 2870 ng/mL
concentration in plasma (Rat [6]): 640 ng/mL

Cc1cccc(Nc2cc(Cl)nc(SCC(=O)O)n2)c1C
concentration in plasma (Rat [7]): 5440 ng/mL
concentration in plasma (Rat [8]): 7290 ng/mL
concentration in plasma (Rat [9]; 0.25 h): 341 ng/mL
concentration in plasma (Rat [9]; 4 h): 214 ng/mL

OCCC(F)(F)C(F)(F)C(F)(F)C(F)(F)C(F)(F)C(F)(F)C(F)(F)C(F)(F)F [Fluorotelomer alcohol 8+2]
concentration in plasma (Rat [10]; 0.75 h): 756 ng/mL
concentration in plasma (Rat [10]; 12 h): 13.3 ng/mL
concentration in brain (Rat [11]): 4390 ng/g
concentration in liver (Rat [12]): 8140 ng/g
concentration in liver (Rat [13]): 434 ng/g
concentration in plasma (Rat [14]; 0.75 h): 294 ng/mL
concentration in plasma (Rat [14]; 12 h): 4.64 ng/mL
concentration in brain (Rat [15]): 1090 ng/g

O=C(O)CSCC(=O)O [Thiodiglycolic Acid]
concentration in thymus (Rat [16]): 1900 ng/g
concentration in liver (Rat [17]): 7460 ng/g
concentration in thymus (Rat [18]): 3430 ng/g
concentration in plasma (Rat [19]): 34600 ng/mL
concentration in heart (Rat [20]): 1310 ng/g
concentration in liver (Rat [21]): 3490 ng/g
concentration in thymus (Rat [22]): 3410 ng/g
concentration in thymus (Rat [23]): 1910 ng/g
concentration in thymus (Rat [24]): 986 ng/g
concentration in heart (Rat [25]): 2840 ng/g
concentration in plasma (Rat [26]): 1560 ng/mL

ClCCOCOCCCl [Bis 2-Chloroethoxy Methane]
concentration in plasma (Rat [27]; 10 min): 22600 ng/mL
concentration in plasma (Rat [27]; 5.333 h): 67 ng/mL
concentration in heart (Rat [28]): 27.4 ng/g
concentration in plasma (Rat [29]): 12.2 ng/mL
concentration in thymus (Rat [30]): 2300 ng/g
concentration in heart (Rat [31]): 124 ng/g
concentration in plasma (Rat [32]): 24.8 ng/mL
concentration in plasma (Rat [33]): 36.5 ng/mL
concentration in liver (Rat [34]): 3690 ng/g

CCCCOC(=O)c1ccccc1C(=O)O [Mono-n-butyl phthalate]
concentration in plasma (Rat [35]): 3210 ng/mL
concentration in plasma (Rat [36]): 1190 ng/mL
concentration in plasma (Rat [37]): 3520 ng/mL
concentration in plasma (Rat [38]): 2010 ng/mL
concentration in plasma (Rat [39]): 38500 ng/mL
